SMILES strings stand for the structures. Like-named read-outs stand apart in the source and are kept apart here.

The IC50 is the point on the concentration scale where inhibition reaches its midpoint.

For the experiment, the target named is BTK (Homo sapiens (Human), UniProt Q06187). In words: Btk in vitro inhibitory activity (one of Method A TR-FRET, Method B electrophoretic mobility shift, Method C radiometric filter binding). The format is biochemical. For orientation: A gel shift assay detects complexes by their altered migration in electrophoresis.
Setting [1] is: determined using one of the methods of Example 355a, 355b and 355c, read-out: BTK IC50.

BTK, sequence (Q06187 whole entry): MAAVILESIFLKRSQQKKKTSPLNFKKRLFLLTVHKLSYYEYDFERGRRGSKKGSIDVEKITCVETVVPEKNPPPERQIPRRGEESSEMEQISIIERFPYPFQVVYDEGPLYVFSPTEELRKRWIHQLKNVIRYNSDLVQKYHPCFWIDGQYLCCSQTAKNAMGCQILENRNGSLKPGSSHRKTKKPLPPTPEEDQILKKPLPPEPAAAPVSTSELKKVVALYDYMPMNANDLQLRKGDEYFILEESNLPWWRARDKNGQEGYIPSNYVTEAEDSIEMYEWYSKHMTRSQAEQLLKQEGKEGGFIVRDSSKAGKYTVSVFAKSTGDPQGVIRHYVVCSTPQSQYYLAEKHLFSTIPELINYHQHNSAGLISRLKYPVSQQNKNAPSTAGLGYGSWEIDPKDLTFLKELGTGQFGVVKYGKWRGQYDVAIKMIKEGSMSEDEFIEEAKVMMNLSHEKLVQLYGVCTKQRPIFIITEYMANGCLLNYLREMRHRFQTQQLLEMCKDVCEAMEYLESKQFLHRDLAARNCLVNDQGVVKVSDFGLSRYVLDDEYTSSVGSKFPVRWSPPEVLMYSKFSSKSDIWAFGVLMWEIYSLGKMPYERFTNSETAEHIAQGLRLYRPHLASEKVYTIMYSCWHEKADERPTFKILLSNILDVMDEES

As to `CC(=O)N1CCC(c2ccc(Nc3nc(N4CCC[C@@H](NC(=O)N5CCCCC5)C4)nnc3C(N)=O)cc2)CC1` [Example 338, (R)-5-(4-(1-acetylpiperidin-4-yl)phenylamino)-3-(3-(piperidine-1-carboxamido)piperidin-1-yl)-1,2,4-triazine-6-carboxamide], the IC50 runs as follows: under setting [1], below 0.01 µM; (read-out: Btk (IC50)) below 0.01 µM. As for `Cc1cc(Nc2cc(N3CCC[C@@H](NC(=O)c4ccc(C(C)(C)C)cc4)C3)cnc2C(N)=O)sn1` [Example 77, (R)-5-(3-(4-tert-butylbenzamido)piperidin-1-yl)-3-(3-methylisothiazol-5-ylamino)picolinamide], under setting [1], the half-inhibitory concentration (IC50) lay within 0.01 to 0.1 µM. Regarding `CN(C)C(=O)N[C@@H]1CCCN(c2cnc(C(N)=O)c(Nc3ccc([N+](=O)[O-])cc3)n2)C1` [Example 192, (R)-5-(3-(3,3-dimethylureido)piperidin-1-yl)-3-(4-nitrophenylamino)pyrazine-2-carboxamide], the IC50 is 0.01 to 0.1 µM (Btk (IC50)) and 0.01 to 0.1 µM under setting [1].

For the compound `NC(=O)c1ncc(N2CCC[C@@H](NC(=O)C3CCCC3)C2)nc1Nc1ccc(C2CCN(C3CC3)CC2)cc1` [Example 310, (R)-5-(3-(cyclopentanecarboxamido)piperidin-1-yl)-3-(4-(1-cyclopropylpiperidin-4-yl)phenylamino)pyrazine-2-carboxamide], the IC50 under setting [1] fell in the range of 0.01 to 0.1 µM and the IC50 (read-out: Btk (IC50)) was in the range of 0.01 to 0.1 µM. For `CN(C(=O)N[C@@H]1CCCN(c2nnc(C(N)=O)c(Nc3ccc(C(=O)N4CCOCC4)cc3)n2)C1)c1ccccc1` [Example 39, (R)-3-(3-(3-methyl-3-phenylureido)piperidin-1-yl)-5-(4-(morpholine-4-carbonyl)phenylamino)-1,2,4-triazine-6-carboxamide], under setting [1], the IC50 fell in the range of 0.01 to 0.1 µM.

Regarding `CN1CCN([C@@H]2CCCN(c3cnc(C(N)=O)c(Nc4ccc(C5(C(N)=O)CCN(C6CCCC6)CC5)cc4)n3)C2)C1=O` [Example 272, (R)-3-(4-(4-carbamoyl-1-cyclopentylpiperidin-4-yl)phenylamino)-5-(3-(3-methyl-2-oxoimidazolidin-1-yl)piperidin-1-yl)pyrazine-2-carboxamide], the IC50 (read-out: Btk (IC50)) was below 0.01 µM. In the case of `CN(C)C(=O)N[C@@H]1CCCN(c2cnc(C(N)=O)c(Nc3ccc(C4(CN)CCCC4)cc3)n2)C1` [Example 204, (R)-3-(4-(1-(aminomethyl)cyclopentyl)phenylamino)-5-(3-(3,3-dimethylureido)piperidin-1-yl)pyrazine-2-carboxamide], the IC50 is 0.01 to 0.1 µM under setting [1] and 0.01 to 0.1 µM (read-out: Btk (IC50)).

`COc1ccc(C(=O)N[C@@H]2CCCN(c3cnc(C(N)=O)c(Nc4ccc(N5CCCCC5)cc4)n3)C2)cc1` [Example 164, (R)-5-(3-(4-methoxybenzamido)piperidin-1-yl)-3-(4-(piperidin-1-yl)phenylamino)pyrazine-2-carboxamide]: under setting [1], the concentration for half-maximal inhibition (IC50) is below 0.01 µM. On the same count and under the same terms, in the case of `COc1ccc(C(=O)N[C@@H]2CCCN(c3nnc(C(N)=O)c(Nc4ccc(C5CCN(C6CCCC6)CC5)cc4)n3)C2)cc1` [Example 334, (R)-5-(4-(1-cyclopentylpiperidin-4-yl)phenylamino)-3-(3-(4-methoxybenzamido)piperidin-1-yl)-1,2,4-triazine-6-carboxamide] it was below 0.01 µM. Regarding `C[C@@H]1[C@H](NC(=O)N(C)C)CCCN1c1cnc(C(N)=O)c(Nc2ccc(C3CCN(C4CC4)CC3)cc2)n1` [Example 237, 3-(4-(1-cyclopropylpiperidin-4-yl)phenylamino)-5-((2R,3R)-3-(3,3-dimethylureido)-2-methylpiperidin-1-yl)pyrazine-2-carboxamide], the half-inhibitory concentration (IC50) by setting is: (Btk (IC50)) below 0.01 µM; under setting [1], below 0.01 µM.

For `COc1ccc(C(=O)N[C@@H]2CCCN(c3cnc(C(N)=O)c(Nc4ccc(S(C)(=O)=O)cc4)n3)C2)cc1` [Example 117, (R)-5-(3-(4-methoxybenzamido)piperidin-1-yl)-3-(4-(methylsulfonyl)phenylamino)pyrazine-2-carboxamide], under setting [1], the IC50 is below 0.01 µM. Same read-out and setting: in the case of `CN(C)C/C=C/C(=O)N1CCC[C@@H](N(C)c2cnc(C(N)=O)c(Nc3ccc(Oc4ccccc4)cc3)n2)C1` [Example 158, (R,E)-5-((1-(4-(dimethylamino)but-2-enoyl)piperidin-3-yl)(methyl)amino)-3-(4-phenoxyphenylamino)pyrazine-2-carboxamide] it was below 0.01 µM. On to `CN(C)C(=O)N[C@@H]1CCCN(c2cnc(C(N)=O)c(Nc3ccc(C4CCN(C5CCCC5)CC4)cc3)n2)C1` [Example 155, (R)-3-(4-(1-cyclopentylpiperidin-4-yl)phenylamino)-5-(3-(3,3-dimethylureido)piperidin-1-yl)pyrazine-2-carboxamide], for which the IC50 runs as follows: under setting [1], below 0.01 µM; (read-out: Btk (IC50)) below 0.01 µM. In the case of `NC(=O)c1nnc(N2CCC[C@@H](NC(=O)C(=O)N3CCCCC3)C2)nc1Nc1ccc(C(=O)N2CCOCC2)cc1` [Example 83, (R)-5-(4-(morpholine-4-carbonyl)phenylamino)-3-(3-(2-oxo-2-(piperidin-1-yl)acetamido)piperidin-1-yl)-1,2,4-triazine-6-carboxamide], the IC50 reads like this: (Btk (IC50)) 0.1 to 1 µM; under setting [1], 0.1 to 1 µM. As for `CN1CCC(C(=O)N[C@@H]2CCCN(c3nnc(C(N)=O)c(Nc4ccc(C(=O)N5CCOCC5)cc4)n3)C2)CC1` [Example 31, (R)-3-(3-(1-methylpiperidine-4-carboxamido)piperidin-1-yl)-5-(4-(morpholine-4-carbonyl)phenylamino)-1,2,4-triazine-6-carboxamide], the IC50 under setting [1] is 0.01 to 0.1 µM. With `CN(C(=O)N[C@@H]1CCCN(c2cnc(C(N)=O)c(NC3CC3)n2)C1)c1cc(Cl)cc(C(F)(F)F)c1` [Example 352, (R)-5-(3-(3-(3-chloro-5-(trifluoromethyl)phenyl)-3-methylureido)piperidin-1-yl)-3-(cyclopropylamino)pyrazine-2-carboxamide], under setting [1], the IC50 lay within 1 to 10 µM. For the compound `CN1CCC(c2ccc(Nc3nc(N4CCC[C@@H](NC(=O)c5ccc(C(C)(C)C)cc5)C4)cnc3C(N)=O)cc2)CC1` [Example 130, (R)-5-(3-(4-tert-butylbenzamido)piperidin-1-yl)-3-(4-(1-methylpiperidin-4-yl)phenylamino)pyrazine-2-carboxamide], the IC50 is below 0.01 µM under setting [1] and below 0.01 µM (read-out: Btk (IC50)). Regarding `CN1CCCN([C@@H]2CCCN(c3cnc(C(N)=O)c(Nc4ccc(C5CCN(C6CC6)CC5)cc4)n3)C2)C1=O` [Example 284, (R)-3-(4-(1-cyclopropylpiperidin-4-yl)phenylamino)-5-(3-(3-methyl-2-oxotetrahydropyrimidin-1(2H)-yl)piperidin-1-yl)pyrazine-2-carboxamide], the IC50 reads like this: under setting [1], below 0.01 µM; (read-out: Btk (IC50)) below 0.01 µM. Take `CCCOc1ccc(C(=O)N[C@@H]2CCCN(c3nnc(C(N)=O)c(Nc4ccc(C(=O)N5CCOCC5)cc4)n3)C2)cc1` [Example 89, (R)-5-(4-(morpholine-4-carbonyl)phenylamino)-3-(3-(4-propoxybenzamido)piperidin-1-yl)-1,2,4-triazine-6-carboxamide]: the IC50 reads like this: under setting [1], below 0.01 µM; (read-out: Btk (IC50)) below 0.01 µM.

With `CN(C)C(=O)N[C@@H]1CCCCN(c2cnc(C(N)=O)c(Nc3ccc(C4CCN(C5CCCC5)CC4)cc3)n2)C1` [Example 327, (R)-3-(4-(1-cyclopentylpiperidin-4-yl)phenylamino)-5-(3-(3,3-dimethylureido)azepan-1-yl)pyrazine-2-carboxamide], the IC50 was below 0.01 µM under setting [1] and below 0.01 µM (read-out: Btk (IC50)). With `NC(=O)c1ncc(N2CCC[C@@H](NC(=O)c3cccc(Cl)c3)C2)nc1Nc1ccc(C2CCN(C3CC3)CC2)cc1` [Example 312, (R)-5-(3-(3-chlorobenzamido)piperidin-1-yl)-3-(4-(1-cyclopropylpiperidin-4-yl)phenylamino)pyrazine-2-carboxamide], the IC50 under setting [1] is below 0.01 µM and the concentration for half-maximal inhibition (IC50) (read-out: Btk (IC50)) is below 0.01 µM. With `CN1CCCN([C@@H]2CCCN(c3cnc(C(N)=O)c(Nc4ccc(C5CCN(C6CCCC6)CC5)cc4)n3)C2)C1=O` [Example 282, (R)-3-(4-(1-cyclopentylpiperidin-4-yl)phenylamino)-5-(3-(3-methyl-2-oxotetrahydropyrimidin-1(2H)-yl)piperidin-1-yl)pyrazine-2-carboxamide], the IC50 was below 0.01 µM under setting [1] and below 0.01 µM (read-out: Btk (IC50)). Regarding `Cc1ccc(C(=O)N[C@@H]2CCCN(c3nnc(C(N)=O)c(Nc4ccc(C(=O)N5CCOCC5)cc4)n3)C2)cc1` [Example 4, (R)-3-(3-(4-methylbenzamido)piperidin-1-yl)-5-(4-(morpholine-4-carbonyl)phenylamino)-1,2,4-triazine-6-carboxamide], under setting [1], the IC50 is below 0.01 µM. Regarding `COc1cc(Nc2nc(N3CCC[C@@H](NC(=O)N(C)C)C3)cnc2C(N)=O)ccc1Cl` [Example 182, (R)-3-(4-chloro-3-methoxyphenylamino)-5-(3-(3,3-dimethylureido)piperidin-1-yl)pyrazine-2-carboxamide], the IC50 runs as follows: (Btk (IC50)) 0.1 to 1 µM; under setting [1], 0.1 to 1 µM. For the compound `CCCn1nnc2cc(C(=O)N[C@@H]3CCCN(c4nnc(C(N)=O)c(Nc5ccc(C(=O)N6CCOCC6)cc5)n4)C3)ccc21` [Example 103, (R)—N-(1-(6-carbamoyl-5-(4-(morpholine-4-carbonyl)phenylamino)-1,2,4-triazin-3-yl)piperidin-3-yl)-1-propyl-1H-benzo[d][1,2,3]triazole-5-carboxamide], the half-inhibitory concentration (IC50) by setting is: under setting [1], below 0.01 µM; (read-out: Btk (IC50)) 0.01 to 0.1 µM. The corresponding values for `CN(C/C=C/C(=O)N1CCC[C@@H](N(C)c2cnc(C(N)=O)c(Nc3ccc(C(=O)N4CCOCC4)cc3)n2)C1)C1CC1` [Example 156, (R,E)-5-((1-(4-(cyclopropyl(methyl)amino)but-2-enoyl)piperidin-3-yl)(methyl)amino)-3-(4-(morpholine-4-carbonyl)phenylamino)pyrazine-2-carboxamide] are below 0.01 µM and below 0.01 µM. The corresponding values for `CN1CCN([C@@H]2CCCN(c3cnc(C(N)=O)c(Nc4ccc(C5CCN(C6CC6)CC5)cc4)n3)C2)C1=O` [Example 259, (R)-3-(4-(1-cyclopropylpiperidin-4-yl)phenylamino)-5-(3-(3-methyl-2-oxoimidazolidin-1-yl)piperidin-1-yl)pyrazine-2-carboxamide] are below 0.01 µM and below 0.01 µM.

The record behind these values is patent US9656988B2 (Pharmacyclics LLC, priority 2013, dated 2017).
